Patent US20230212163A1, “2-(HET)ARYL-SUBSTITUTED CONDENSED HETEROCYCLIC DERIVATIVES AS PEST CONTROL AGENTS” (Bayer Aktiengesellschaft, priority 2020, published 2023)

Legend:
Format in all cases: in vivo
Heliothis armigera = Heliothis armigera spray test (HELIAR), comparative; conditions: Helicoverpa armigera, 168 h, 7 dat, read-out: % efficacy
Description: (§1) [table] To produce a suitable active compound formulation, 1 part by weight of active compound is dissolved using the stated parts by weight of solvent and made up with water containing an emulsifier concentration of 1000 ppm until the desired concentration is attained. To produce further test concentrations, the formulation is diluted with emulsifier-containing water. If the addition of ammonium salts or/and penetrants is required, these are each added in a concentration of 1000 ppm to the formulation solution. Cotton plants (Gossypium hirsutum) are sprayed with an active compound formulation of the desired concentration and, after drying, populated with caterpillars of the cotton bollworm (Heliothis armigera). After the desired time, the kill in % is determined. 100% means that all caterpillars have been killed; 0% means that none of the caterpillars have been killed.

Spodoptera frugiperda [1] = test: Spodoptera frugiperda spray test (SPODFR, cotton leaves), comparative; conditions: 168 h, 7 dat, read-out: % efficacy
Description: as §1, with “leaves” for “plants”, “and” for “and, after drying,”, “armyworm (Spodoptera frugiperda).” for “cotton bollworm (Heliothis armigera).”

Plutella xylostella = Plutella xylostella spray test (PLUTMA), comparative; conditions: 168 h, 7 dat, read-out: % efficacy
Description: as §1, with “solution. Cabbage leaves (Brassica oleracea)” for “solution. Cotton plants (Gossypium hirsutum)”, “concentration and infected” for “concentration and, after drying, populated”, “with larvae” for “with caterpillars”, “the diamondback moth (Plutella xylostella).” for “the cotton bollworm (Heliothis armigera).”

Diabrotica balteata = Diabrotica balteata spray test; conditions: Diabrotica balteata, 168 h, application rate 100 g/ha, after 7 days
Description: [table] To produce a suitable active compound formulation, 1 part by weight of active compound is dissolved using the stated parts by weight of solvent and made up with water containing an emulsifier concentration of 1000 ppm until the desired concentration is attained. To produce further test concentrations, the formulation is diluted with emulsifier-containing water. Pre-swollen wheat grains (Triticum aestivum) are incubated in a multiwell plate filled with agar and a little water for one day (5 seed grains per cavity). The germinated wheat grains are sprayed with an active compound formulation of the desired concentration. Subsequently, each cavity is infected with 10-20 beetle larvae of Diabrotica balteata. After 7 days, the efficacy in % is determined. 100% means that all wheat plants have grown as in the untreated, uninfected control; 0% means that no wheat plant has grown.

Meloidogyne incognita = Meloidogyne incognita test; conditions: application rate 20 ppm, after 14 days
Description: [table] To produce an appropriate active ingredient formulation, 1 part by weight of active ingredient is mixed with the stated amount of solvent and the concentrate is diluted to the desired concentration with water. Vessels are filled with sand, active ingredient solution, an egg/larvae suspension of the southern root-knot nematode (Meloidogyne incognita) and lettuce seeds. The lettuce seeds germinate and the plants develop. The galls develop on the roots. After 14 days, the nematicidal efficacy in % is determined by the formation of galls. 100% means that no galls were found; 0% means that the number of galls on the treated plants corresponds to the untreated control.

Myzus persicae [2] = test: Myzus persicae oral test; conditions: 120 h, application rate 4 ppm, after 5 days, read-out: efficacy
Description: [table] To produce a suitable active compound formulation, 1 part by weight of active compound is dissolved using the specified parts by weight of solvent and made up with water until the desired concentration is attained. 50 μl of the active compound formulation are transferred into microtitre plates and made up to a final volume of 200 μl with 150 μl of IPL41 insect medium (33%+15% sugar). Subsequently, the plates are sealed with parafilm, which a mixed population of green peach aphids (Myzus persicae) within a second microtitre plate is able to puncture and imbibe the solution through. After 5 days, the efficacy in % is determined. 100% means that all the aphids have been killed; 0% means that no aphids have been killed.

Spodoptera frugiperda [3] = test: Spodoptera frugiperda spray test (maize leaf discs); conditions: Spodoptera frugiperda, foliar, 168 h, application rate 100 g/ha, after 7 days
Description: (§2) [table] To produce a suitable active compound formulation, 1 part by weight of active compound is dissolved using the stated parts by weight of solvent and made up with water containing an emulsifier concentration of 1000 ppm until the desired concentration is attained. To produce further test concentrations, the formulation is diluted with emulsifier-containing water. Leaf discs of maize (Zea mays) are sprayed with an active compound formulation of the desired concentration and, after drying, populated with caterpillars of the fall armyworm (Spodoptera frugiperda). After 7 days, the efficacy in % is determined. 100% means that all the caterpillars have been killed; 0% means that no caterpillar has been killed.

Phaedon cochleariae = Phaedon cochleariae spray test; conditions: application rate 100 g/ha, after 7 days
Description: as §2, with “water. Discs” for “water. Leaf discs”, “of Chinese cabbage leaves (Brassica pekinensis)” for “of maize (Zea mays)”, “with larvae” for “with caterpillars”, “the mustard beetle (Phaedon cochleariae).” for “the fall armyworm (Spodoptera frugiperda).”, “the beetle larvae” for “the caterpillars”, “no beetle larvae have” for “no caterpillar has”

Myzus persicae [4] = test: Myzus persicae spray test; conditions: application rate 100 g/ha, after 5 days
Description: as §2, with “Discs” for “Leaf discs”, “Chinese cabbage leaves (Brassica pekinensis) infested by all stages of the green peach aphid (Myzus persicae)” for “maize (Zea mays)”, “concentration.” for “concentration and, after drying, populated with caterpillars of the fall armyworm (Spodoptera frugiperda).”, “5” for “7”, “aphids” for “caterpillars”, “aphids have” for “caterpillar has”

Nezara viridula = Nezara viridula spray test; conditions: Nezara viridula, 96 h, application rate 500 g/ha, after 4 days
Description: [table] To produce a suitable active compound formulation, 1 part by weight of active compound is dissolved using the stated parts by weight of solvent and made up with water containing an emulsifier concentration of 1000 ppm until the desired concentration is attained. To produce further test concentrations, the formulation is diluted with emulsifier-containing water. Barley plants (Hordeum vulgare) are sprayed with an active compound formulation of the desired concentration and are infected with larvae of the Southern green shield bug (Nezara viridula). After 4 days, the efficacy in % is determined. 100% means that all of the shield bugs have been killed; 0% means that none of the shield bugs have been killed.

Work on `CCS(=O)(=O)c1ccc(-n2cnn(-c3ccccc3F)c2=O)nc1-c1nc2cc(C(F)(F)F)ccc2n1C` [I-34 Known from WO2017/055185, reference compound] yielded an Emax at 4 ppm (Heliothis armigera) of 0%, an Emax at 0.8 ppm (Spodoptera frugiperda [1]) of 0% and an Emax at 4 ppm (Plutella xylostella) of 0%.
`CCS(=O)(=O)c1ccc(-n2ncn(-c3ccc(C4(C#N)CC4)cc3)c2=O)nc1-c1nc2cc(S(=O)(=O)C(F)(F)Cl)ccc2o1` [Example I-18] was tested, and the pest or weed control at 100 g/ha (Diabrotica balteata) was 100% and the “nematicidal efficacy (formation of galls)” value (Meloidogyne incognita) was 100%.
For `CCc1nc(C(F)(F)F)cc2nc(-c3nc(-n4ncn(-c5ccc(O)cc5)c4=O)ccc3S(=O)(=O)CC)n(C)c12` [I-016 Known from WO2018/141954, reference compound], the Emax at 0.8 ppm (Heliothis armigera) was 10%, the Emax at 4 ppm (Heliothis armigera) was 55% and the Emax at 0.8 ppm (Spodoptera frugiperda [1]) was 65%. It also gave an Emax at 0.8 ppm (Plutella xylostella) of 70%.
`CCS(=O)(=O)c1ccc(-n2ncn(-c3ccc(Cl)cc3)c2=O)nc1-c1nc2cc(S(=O)(=O)C(F)(F)F)ccc2o1` [Example I-02] showed a pest or weed control at 4 ppm (Myzus persicae [2]) of 90%, a pest or weed control at 100 g/ha (Spodoptera frugiperda [3]) of 100% and an Emax at 0.8 ppm (Heliothis armigera) of 100%. It also gave an Emax at 4 ppm (Heliothis armigera) of 100%, an Emax at 0.8 ppm (Spodoptera frugiperda [1]) of 100% and an Emax at 0.8 ppm (Plutella xylostella) of 100%. For the same molecule, the activity (Phaedon cochleariae) was 100%.
With `CCS(=O)(=O)c1ccc(-n2ncn(-c3ccc(F)cc3)c2=O)nc1-c1nc2cc(S(=O)(=O)C(F)(F)F)ccc2o1` [Example I-04] the pest or weed control at 4 ppm (Myzus persicae [2]) was 100%, the pest or weed control at 100 g/ha (Spodoptera frugiperda [3]) was 100% and the Emax at 4 ppm (Heliothis armigera) was 100%. It also gave an Emax at 0.8 ppm (Spodoptera frugiperda [1]) of 100%, an Emax at 4 ppm (Plutella xylostella) of 100% and an activity (Phaedon cochleariae) of 100%.
Work on `CCS(=O)(=O)c1ccc(-n2ncn(C3CC3)c2=O)nc1-c1nc2cc(S(=O)(=O)C(F)(F)F)ccc2o1` [Example I-03] yielded a pest or weed control at 4 ppm (Myzus persicae [2]) of 100%, a pest or weed control at 100 g/ha (Spodoptera frugiperda [3]) of 100% and an activity (Myzus persicae [4]) of 100%. It also gave an activity (Phaedon cochleariae) of 100%.
For `CCS(=O)(=O)c1ccc(-n2ncn(-c3ccc(OC)nc3)c2=O)nc1-c1nc2cc(S(=O)(=O)C(F)(F)F)ccc2o1` [Example I-43], the pest or weed control at 100 g/ha (Diabrotica balteata) was 80%, the pest or weed control at 100 g/ha (Spodoptera frugiperda [3]) was 83% and the “nematicidal efficacy (formation of galls)” value (Meloidogyne incognita) was 90%. It also gave a pest or weed control at 500 g/ha (Nezara viridula) of 90%.
